# From publication PMC2908295 (Journal of medicinal chemistry, 2010)
# Square brackets hold non-standard residues; d marks the D form. Peptide text beside a SMILES is read from it. * marks the point of attachment. X1 = C[C@@H](CCC[N+](C)(C)C)C(=O)*; Tle = CC(C)(C)[C@H](N)C(=O)O
# Assays:
# male Sprague-Dawley rats [1] = experiment: Hotplate model; format: in vivo, rat
# male Sprague-Dawley rats [2] = experiment: Acetic acid writhing model; format: in vivo; conditions: rat, i.v., 3% acetic acid i.p. 20 min after drug, n = 3 for all doses
# rats = experiment: Chung model for neuropathic pain; format: in vivo; conditions: rat, single dose of 10 mg/kg i.p., n = 5
# male Sprague-Dawley rats [3] = experiment: Hypothermia assay; format: in vivo; conditions: rat
# PK analysis by LC/MS = format: in vivo; conditions: rat, iv, 1 mg/kg
# [4] = PK analysis by NTR-1 binding activity in plasma; format: in vivo; conditions: rat, i.v., NTR-1 radiolabel competition assay
# [5] = rat hotplate, morphine 5 mg/kg i.p., n ≥ 6
Structure (SMILES),"maximum response latency (male Sprague-Dawley rats [1]; rat hotplate, comparison with hydrolysis products, cut-off 30 s) [s]","EC50 hotplate, i.m. (male Sprague-Dawley rats [1]; rat, i.m., assessed after 60 min, n = 3 for all doses) [mg/kg]","EC50 hotplate, i.p. (male Sprague-Dawley rats [1]; rat, i.p., assessed after 60 min, n = 3 for all doses) [mg/kg]","EC50 hotplate, i.v. (male Sprague-Dawley rats [1]; rat, i.v., assessed after 60 min, n = 3 for all doses) [mg/kg]","EC50 hotplate, s.c. (male Sprague-Dawley rats [1]; rat, s.c., assessed after 60 min, n = 3 for all doses) [mg/kg]",EC50 acetic acid writhing (male Sprague-Dawley rats [2]) [mg/kg],"duration of maximal response, Chung model (rats)","duration of drop in core body temperature (male Sprague-Dawley rats [3]; 10 mg/kg i.v., n ≥ 4) [h]","EC50 hypothermia (area under the PD curves) (male Sprague-Dawley rats [3]; i.v., rectal temperature every 15 min for 4 h, n = 3 for all doses) [mg/kg]",Tmax (PK analysis by LC/MS; in vivo) [min],half-life (PK analysis by LC/MS; plasma) [min],time until plasma NTR-1 binding returned to level of non-treated animals [4] [min],"maximal response (% of MPE), morphine benchmark (male Sprague-Dawley rats [1]; [5]) [%]",time of return of response to baseline (male Sprague-Dawley rats [1]; [5]) [min],time to reach 100% MPE (male Sprague-Dawley rats [1]; [5]) [min]
CC(C)C[C@H](NC(=O)[C@@H](NC(=O)[C@H](Cc1ccc(O)cc1)NC(=O)[C@@H]1CCCN1C(=O)[C@H](CCCNC(=N)N)NC(=O)[C@@H](C)CCC[N+](C)(C)C)C(C)(C)C)C(=O)O [Compound 1] (X1-RPY[Tle]L-OH; N-terminus assumed),30,2.45,2.00,2.64,3.84,0.16,maintained for over one hour,> 4,0.78,≤ 5,26.3,60,–,–,–
"CN1CC[C@]23c4c5ccc(O)c4O[C@H]2[C@@H](O)C=C[C@H]3[C@H]1C5 [morphine, reference compound]",–,–,–,–,–,–,–,–,–,–,–,–,100,≤ 200,15 to 30
